Laboratory results published in patent US20060046968A1, “Prodrug substituted benzoxazoles as estrogenic agents” (priority 2004, published 2006).
Values joined by “and” are separate entries in the source; they are usually repeats but may differ in a detail not shown here. Equal entries are not always repeated.

Assays:
Type in all cases: in vivo
[1] = tested on: ovulation (number of oocytes ovulated); assay: Ovulation inhibition test procedure; conditions: 50 mg/kg
Description: The test procedure is used to determine whether test compounds can inhibit or change the timing of ovulation. It can also be used to determine the number of oocytes ovulated [Lundeen, et al., J Steroid Biochem Mol Biol 78: 137-143 (2001)]. The following data were obtained from representative metabolites of compounds from the invention (Table 22).

[2] = tested on: morphine-addicted rats; assay: Rat hot flush test procedure (tail skin temperature after naloxone)
Description: The effect of test compounds on hot flushes can be evaluated in a standard pharmacological test procedure that measures the ability of a test compound to blunt the increase in tail skin temperature, which occurs as morphine-addicted rats are acutely withdrawn from the drug using naloxone [Merchenthaler, et al., Maturitas 30: 307-16 (1998)]. It can also be used to detect estrogen receptor antagonist activity by co-dosing test compound with the reference estrogen. The following data were obtained from representative metabolites of compounds of the invention (Table 7).

[3] = tested on: Sexually immature Sprague-Dawley rats; assay: Rat uterotrophic test procedure (Procedure 1)
[4] = tested on: Female Mongolian gerbils; assay: Transient global ischemia in the Mongolian gerbil: neurogranin mRNA in hippocampus; conditions: gerbil hippocampus after 5 min global ischemia; s.c. daily
Procedure: Transient global ischemia in the Mongolian gerbil. The effect of test compounds on preventing or treating brain injury in response to oxygen deprivation/reperfusion were measured using the following test procedure.
Female Mongolian gerbils (60-80 g; Charles River Laboratories, Kingston, N.Y.) were housed in the Wyeth-Ayerst animal care facility Association for Assessment and Acreditation of Laboratory Animal Care (AAALAC) certified with a 12-hour light, 12-hour dark photoperiod and free access to tap water and a low-estrogen casein diet (Purina®; Richmond, Ind.). After acclimation (3-5 days), gerbils were anesthetized with isoflurane (2-3% mixture with O2), ovariectomized (Day 0). […] On Day 6, gerbils (n=4-5/group) were anesthetized with isoflurane, the common carotid arteries visualized via a mid-line neck incision and both arteries simultaneously occluded for 5 minutes with non-traumatic micro aneurysm clips. […]
The degree of neuronal protection was evaluated by in situ hybridization analysis of neurogranin mRNA. […]
Neurogranin mRNA was selected for these studies because it is highly expressed in the hippocampal neurons including CA1, but absent in glia and other cell types present in this brain region. […] The results from 6 sections (40 μm apart) per animal were averaged and statistically evaluated. […]

[5] = compound 2 mg/rat + 17α-ethinyl, 17β-estradiol 0.06 μg/rat s.c. (antagonist mode)

Structure (SMILES) | Number of oocytes (mean ± SEM) [1] | Temperature change 15 minutes after naloxone injection (mean ± SEM) ([2]; 15 mg/kg) | mean uterine weight ± SEM [3, 5] | Temperature change 15 minutes after naloxone injection (mean ± SEM) ([2]; 0.3 mg/kg) | mean uterine weight ± SEM ([3]; reference estrogen alone, 0.06 μg/rat s.c., days 19-21) | Neurogranin mRNA (mean ± stdev) [4]
Oc1ccc(-c2nc3cc(O)cc(Br)c3o2)cc1 [Example 20, 7-BROMO-2-(4-HYDROXYPHENYL)-1,3-BENZOXAZOL-5-OL] | 14.13 ± 0.79 | 5.28 ± 0.71 | 95.9 ± 5.5 mg |  |  | 
C#C[C@]1(O)CC[C@H]2[C@@H]3CCc4cc(O)ccc4[C@H]3CC[C@@]21C [17α-ethinyl, 17β-estradiol, 17α-ethinyl-17β-estradiol, reference compound] |  |  |  | 2.12 ± 1.14 | 104.7 ± 5.4 mg and 85.5 ± 3.1 mg | 
N#Cc1cc(O)cc2nc(-c3ccc(O)cc3)oc12 [Example 41, 5-HYDROXY-2-(4-HYDROXYPHENYL)-1,3-BENZOXAZOL-7-CARBONITRILE] |  | 5.25 ± 0.72 | 76.6 ± 3.0 mg |  |  | 43.0 ± 21.8 arbitrary units
